# Measured values reported in publication PMC7918738, “Microtubule Destabilizing Sulfonamides as an Alternative to Taxane-Based Chemotherapy” (International Journal of Molecular Sciences, 2021).
# “And” between values parts separate entries of the source, which are not always exact repeats. Equal entries are not always repeated.
# Experiments:
# MCF7 cells = test: Annexin V-FITC/PI cell death quantification in MCF7; assay type: cell-based, human; conditions: 38 600 nM, 42 50 nM, 45 400 nM; for Annexin V-FITC/PI 72 h LA (late apoptosis) / Annexin V-FITC/PI 72 h Necrosis / Annexin V-FITC/PI 72 h EA (early apoptosis) / Annexin V-FITC/PI 72 h Live / Annexin V-FITC/PI 6 Days LA (late apoptosis) / Annexin V-FITC/PI 6 Days Necrosis / Annexin V-FITC/PI 6 Days EA (early apoptosis) / Annexin V-FITC/PI 6 Days Live: CA-4 50 nM; for Annexin V-FITC/PI 6 Days LA (late apoptosis) / Annexin V-FITC/PI 6 Days Necrosis / Annexin V-FITC/PI 6 Days EA (early apoptosis) / Annexin V-FITC/PI 6 Days Live: MCF7, 6 days
# Protocol: To determine whether the cytotoxic/antiproliferative effect of the MDS was due to apoptosis induction, cells were treated with variable concentrations of the drug for 72 h or 6 days, stained with Annexin V-FITC (AnV) and propidium iodide (PI), and analyzed by flow cytometry. Double negative cells (AnV^−/PI^−) were classified as live cells (L), cells positive for AnV and negative for PI (AnV^+/PI^−) were considered in Early Apoptosis (EA), cells negative for AnV and positive for PI (AnV^−/PI^+) were considered necrotic (N), and double-positive cells (AnV^+/PI^+) as Late Apoptosis (LA). In all cases, the compounds were used at the same concentrations previously used in cell cycle studies (Table 5).
# MCF7, SKOV-3, and HeLa apoptotic cells were quantified using an Annexin V-FITC/PI apoptosis detection kit (Immunostep, Salamanca, Spain) according to the manufacturer’s guidelines. 1.5 mL/well of cells in the exponential growth phase at 2·10^4 cells/mL were seeded onto 12-well plates and left to attach overnight. After 24 h incubation, cells were treated with selected compounds. After 72 h (MCF7, SKOV-3, and HeLa) and 6 days (MCF7) post-treatment, attached and floating cells of treated and untreated wells were collected, centrifuged, resuspended in Annexin V binding buffer, and stained with Annexin V-FITC/PI. Cells were then incubated in darkness at room temperature for 15 min and a total of 30,000 cells were acquired and analyzed using the BD Accuri™ C6 Plus Flow Cytometer and Software (version 1.0.264.21, BD Biosciences, San José, CA, USA), respectively. Compounds were dissolved in DMSO and the final solvent concentration never exceeded 0.5% (v/v). Control wells included cells with 0.5% (v/v) DMSO.
# [1] = tested on: SKOV3 ovarian carcinoma cells; parameters: method as in PMID 29291446; conditions: read-out: Antiproliferative IC50 SKOV3; cited from earlier work
# SKOV3 cells = test: Cell cycle analysis in SKOV3 (PI staining, flow cytometry); assay type: cell-based, human; conditions: 38 600 nM, 42 50 nM, 45 400 nM; for SKOV3 cells at G2/M phase: 24 h
# Protocol: The effect of the lead MDS on the cell cycle of MCF7, SKOV3, and HeLa cells was analyzed in time-course experiments at 24, 48, and 72 h post-treatment by DNA staining and flow cytometry quantification. The working concentration for each compound (600 nM for 38, 50 nM for 42, and 400 nM for 45) was established at the complete inhibition of cell proliferation in view of individually assays run in parallel for each cell line.
# Cell cycle analysis was performed in MCF7, SKOV-3, and HeLa cells by quantifying the DNA content by flow cytometry. Cells in the exponential growth phase at 2·10^4 cells/mL were seeded in 24-well plates (1 mL/well). After 24 h incubation, cells were treated with different concentrations of the selected compounds and the effect of treated and untreated cells was measured 24, 48, and 72 h post-treatment. Live and dead cells were collected and fixed in ice-cold ethanol/PBS (7:3) and stored at 4 °C for later use. Cells were rehydrated with PBS, treated with 100 µg/mL RNase A (Sigma-Aldrich Co., St. Louis, MO, USA) and stained overnight in darkness at room temperature with 50 µg/mL PI (Sigma-Aldrich Co.). Cell cycle profiles were then analyzed by flow cytometry using BD Accuri™ C6 Plus Flow Cytometer (BD Biosciences, San José, CA, USA). Data were analyzed with BD Accuri™ C6 Software (version 1.0.264.21, BD Biosciences, San José, CA, USA) and compared to control cells. Compounds were dissolved in DMSO and the final solvent concentration never exceeded 0.5% (v/v). Control wells included cells with 0.5% (v/v) DMSO.
# [2] = tested on: microtubule network of MCF7, SKOV3, and HeLa cells; test: Immunofluorescence confocal microscopy of the microtubule network; assay type: cell-based, human; conditions: 72 h, 38 600 nM, 45 400 nM
# Protocol: The effect of MDS 38 and 45 on the tubulin cytoskeleton was analyzed in MCF7, SKOV3, and HeLa cells after 72-h treatments. The microtubule network was visualized by confocal microscopy staining α-tubulin in green, and cell nuclei were stained in blue with DAPI (4’,6-diamidino-2-phenylindole) (Figure 4).
# MCF7, SKOV-3, and HeLa cells were grown on glass coverslips coated with poly-L-lysine (12 mm diameter). To reach appropriate cell confluence, coverslips were manipulated in 6-well plates (3 coverslips/well) seeding 3 mL/well of cells in the exponential growth phase at 2 × 10^4 cells/mL. After 24 h incubation, cells were treated with selected compounds and incubated for 72 h. Cells were washed with PBS, fixed with 4% formaldehyde in PBS for 10 min, permeabilized with 0.5% Triton X-100 (Boehringer Mannheim, Ingelheim am Rhein, Germany) in PBS for 10 min and blocked with 10% BSA in PBS for 30 min. Microtubule detection was performed by incubation with anti-α-tubulin mouse monoclonal antibody (1:200 in 3% BSA/PBS) (Sigma-Aldrich) for 1.5 h. After PBS washing, coverslips were incubated with fluorescent secondary antibody Alexa Fluor 488 goat anti-mouse IgG (1:400 in 1% BSA/PBS) (Molecular Probes, Invitrogen, Thermo Fischer Scientific) for 1 h in darkness. […] Cells were analyzed by confocal microscopy using a LEICA SP5 microscope DMI-6000V model coupled to a LEICA LAS AF software computer.
smiles,measurement,setting,value
"COc1ccc(/C=C\c2cc(OC)c(OC)c(OC)c2)cc1O [Combretastatin A-4, reference compound]",Annexin V-FITC/PI 72 h LA (late apoptosis),"MCF7 cells; MCF7, 72 h",3.3%
same,Annexin V-FITC/PI 72 h Necrosis,"MCF7 cells; MCF7, 72 h",6.7%
same,Annexin V-FITC/PI 72 h EA (early apoptosis),"MCF7 cells; MCF7, 72 h, listed as CA-4",32% and 31.7%
same,Annexin V-FITC/PI 72 h Live,"MCF7 cells; MCF7, 72 h, listed as CA-4",58% and 58.3%
same,Annexin V-FITC/PI 6 Days LA (late apoptosis),MCF7 cells,2.7%
same,Annexin V-FITC/PI 6 Days Necrosis,MCF7 cells,0.4%
same,Annexin V-FITC/PI 6 Days EA (early apoptosis),MCF7 cells; listed as CA-4,52.4%
same,Annexin V-FITC/PI 6 Days Live,MCF7 cells; listed as CA-4,44.5%
same,IC50,[1],380 nM
CNc1ccc(S(=O)(=O)N(C)c2cc(OC)c(OC)c(OC)c2)cc1 [Compound 38],SKOV3 cells at G2/M phase,SKOV3 cells,44%
same,SKOV3 cells at SubG0/G1,SKOV3 cells; 48 h,35%
same,SKOV3 cells at SubG0/G1,SKOV3 cells; 72 h,43%
same,Annexin V-FITC/PI 72 h EA (early apoptosis),"MCF7 cells; MCF7, 72 h",29%
same,Annexin V-FITC/PI 72 h LA (late apoptosis),"MCF7 cells; MCF7, 72 h",5.4%
same,Annexin V-FITC/PI 72 h Live,"MCF7 cells; MCF7, 72 h",60% and 60.5%
same,Annexin V-FITC/PI 72 h Necrosis,"MCF7 cells; MCF7, 72 h",5.1%
same,Annexin V-FITC/PI 6 Days EA (early apoptosis),MCF7 cells,45.0%
same,Annexin V-FITC/PI 6 Days LA (late apoptosis),MCF7 cells,2.7%
same,Annexin V-FITC/PI 6 Days Live,MCF7 cells,52.0%
same,Annexin V-FITC/PI 6 Days Necrosis,MCF7 cells,0.3%
same,Effect on the microtubule network (α-tubulin immunofluorescence),[2],disrupted the microtubule system
COc1ccc(S(=O)(=O)N(C)c2cc(OC)c(OC)c(OC)c2)cc1N [Compound 42],SKOV3 cells at G2/M phase,SKOV3 cells,44%
same,SKOV3 cells at SubG0/G1,SKOV3 cells; 48 h,34%
same,SKOV3 cells at SubG0/G1,SKOV3 cells; 72 h,53%
same,Phosphatidylserine exposure (Annexin V-positive MCF7 cells),"MCF7 cells; MCF7, 72 h",11%
same,Annexin V-FITC/PI 72 h EA (early apoptosis),"MCF7 cells; MCF7, 72 h",9% and 8.5%
same,Annexin V-FITC/PI 72 h LA (late apoptosis),"MCF7 cells; MCF7, 72 h",2.3%
same,Annexin V-FITC/PI 72 h Live,"MCF7 cells; MCF7, 72 h",88% and 87.7%
same,Annexin V-FITC/PI 72 h Necrosis,"MCF7 cells; MCF7, 72 h",1.4%
same,Annexin V-FITC/PI 6 Days EA (early apoptosis),MCF7 cells,19% and 18.9%
same,Annexin V-FITC/PI 6 Days LA (late apoptosis),MCF7 cells,1.7%
same,Annexin V-FITC/PI 6 Days Live,MCF7 cells,79% and 79.1%
same,Annexin V-FITC/PI 6 Days Necrosis,MCF7 cells,0.3%
COc1ccc(S(=O)(=O)N(Cc2ccccc2)c2cc(OC)c(OC)c(OC)c2)cc1N [Compound 45],SKOV3 cells at G2/M phase,SKOV3 cells,44%
same,SKOV3 cells at SubG0/G1,SKOV3 cells; 48 h,46%
same,SKOV3 cells at SubG0/G1,SKOV3 cells; 72 h,63%
same,Annexin V-FITC/PI 72 h EA (early apoptosis),"MCF7 cells; MCF7, 72 h",20% and 20.1%
same,Annexin V-FITC/PI 72 h LA (late apoptosis),"MCF7 cells; MCF7, 72 h",7.5%
same,Annexin V-FITC/PI 72 h Live,"MCF7 cells; MCF7, 72 h",71% and 70.5%
same,Annexin V-FITC/PI 72 h Necrosis,"MCF7 cells; MCF7, 72 h",1.9%
same,Annexin V-FITC/PI 6 Days EA (early apoptosis),MCF7 cells,39.3%
same,Annexin V-FITC/PI 6 Days LA (late apoptosis),MCF7 cells,3.8%
same,Annexin V-FITC/PI 6 Days Live,MCF7 cells,56.7%
same,Annexin V-FITC/PI 6 Days Necrosis,MCF7 cells,0.3%
same,Effect on the microtubule network (α-tubulin immunofluorescence),[2],disrupted the microtubule system
